As a reminder, the melting point is the temperature of the solid-liquid transition.

SMILES strings stand for the structures.

`CC(C)n1nc(-c2sc(NC(=O)CN3CCCCC3)nc2-c2ccccc2)ccc1=O` [Example 132, N-[5-(1 Isopropyl-6-oxo-1,6-dihydro-3-pyridazinyl)-4-phenyl-1,3-thiazol-2-yl]-2-(1-piperidinyl)acetamide]: the melting point was in the range of 189 to 190 °C.
Then `CCCNC(=O)c1nc(-c2ccc(F)cc2)c(-c2ccc(=O)n(C(C)C)n2)s1` [Example 175, 4-(4-fluorophenyl)-5-(1-isopropyl-6-oxo-1,6-dihydro-3-pyridazinyl)-N-propyl-1,3-thiazole-2-carboxamide], with 146.5 to 147.5 °C; and `CC(C)n1nc(-c2sc(Nc3cccnc3)nc2-c2ccccc2)ccc1=O` [Example 16, 2-Isopropyl-6-[4-phenyl-2-(3-pyridinylamino)-1,3-thiazol-5-yl]-3(2H)-pyridazinone], with 226 to 228 °C.
As to `CC(C)n1nc(-c2sc(C(N)=O)nc2-c2cccc(F)c2)ccc1=O` [Example 164, 4-(3-Fluorophenyl)-5-(1-isopropyl-6-oxo-1,6-dihydro-3-pyridazinyl)-1,3-thiazole-2-carboxamide], the melting point fell in the range of 248 to 250 °C.
The value for `CC(C)n1nc(-c2sc(C(=O)NC3CC3)nc2-c2ccc(F)cc2)ccc1=O` [Example 198, N-cyclopropyl-4-(4-fluorophenyl)-5-(1-isopropyl-6-oxo-1,6-dihydro-3-pyridazinyl)-1,3-thiazole-2-carboxamide] was 157 to 158 °C.
As to `CC(C)n1nc(-c2sc(NCCN3CCOCC3)nc2-c2ccccc2)ccc1=O.Cl.Cl`, the melting point was in the range of 140 to 143 °C.
Then `CC(=O)N(C)c1nc(-c2ccccc2)c(-c2ccc(=O)n(C(C)C)n2)s1` [Example 22, N-[5-(1-isopropyl-6-oxo-1,6-dihydro-3-pyridazinyl)-4-phenyl-1,3-thiazol-2-yl]-N-methylacetamide], with 165 to 167 °C; and `Nc1nc(-c2ccccc2)c(-c2ccc(=O)n(Cc3ccccc3)n2)s1` [Example 92, 6-(2-Amino-4-phenyl-1,3-thiazol-5-yl)-2-benzyl-3(2H)-pyridazinone], with 225 to 228 °C.
With `CC(C)n1nc(-c2sc(NC(=O)CNCc3ccccc3)nc2-c2ccccc2)ccc1=O` [Example 103, 2-(Benzylamino)-N-[5-(1-isopropyl-6-oxo-1,6-dihydro-3-pyridazinyl)-4-phenyl-1,3-thiazol-2-yl]acetamide], the melting point fell in the range of 144 to 145 °C.
Compound `CC(C)n1nc(-c2sc(C(N)=S)nc2-c2ccccc2)ccc1=O` [Example 240, 5-(1-isopropyl-6-oxo-1,6-dihydro-3-pyridazinyl)-4-phenyl-1,3-thiazole-2-carbothioamide] displayed a melting point of over 250 °C.
For `CC(C)n1nc(-c2sc(NC(=O)c3ccc(Cn4ccnc4)cc3)nc2-c2ccccc2)ccc1=O` [Example 139, 4-(1H-Imidazol-1-ylmethyl)-N-[5-(1-isopropyl-6-oxo-1,6-dihydro-3-pyridazinyl)-4-phenyl-1,3-thiazol-2-yl]benzamide], the melting point was over 250 °C.
The value for `CC(C)n1nc(-c2sc(NC(=O)CNCCN(C)C)nc2-c2ccccc2)ccc1=O.Cl.Cl` was 136 to 142 °C; that for `CC(C)n1nc(-c2sc(C(=O)N3CCCC3)nc2-c2ccccc2)ccc1=O` [Example 226, 2-Isopropyl-6-[4-phenyl-2-(1-pyrrolidinylcarbonyl)-1,3-thiazol-5-yl]-3(2H)-pyridazinone] was 169 to 170.5 °C; that for `CC(C)n1nc(-c2sc(NC(=O)c3ccc(C(F)(F)F)cc3)nc2-c2ccccc2)ccc1=O` [Example 39, N-[5-(1-Isopropyl-6-oxo-1,6-dihydro-3-pyridazinyl)-4-phenyl-1,3-thiazol-2-yl]-4-(trifluoromethyl)benzamide] was 162 to 167 °C.
In turn, `CNC(=O)c1nc(-c2ccccc2)c(-c2ccc(=O)n(C(C)C)n2)s1` [Example 212, 5-(1-isopropyl-6-oxo-1,6-dihydro-3-pyridazinyl)-N-methyl-4-phenyl-1,3-thiazole-2-carboxamide] returned a melting point of 165 to 167.5 °C.
`CC(C)n1nc(-c2sc(N)nc2-c2cccc(Cl)c2)ccc1=O` [Example 81, 6-[2-Amino-4-(3-chlorophenyl)-1,3-thiazol-5-yl]-2-isopropyl-3(2H)-pyridazinone]: the melting point was 235.5 to 237 °C.
`Nc1nc(-c2ccccc2)c(-c2ccc(=O)n(CC3CC3)n2)s1` [Example 88, 6-(2-Amino-4-phenyl-1,3-thiazol-5-yl)-2-(cyclopropylmethyl)-3(2H)-pyridazinone] had a melting point of 204 to 206 °C.
For `Cn1nc(-c2sc(C(=O)NC3CC3)nc2-c2ccccc2)ccc1=O` [Example 189, N-cyclopropyl-5-(1-methyl-6-oxo-1,6-dihydro-3-pyridazinyl)-4-phenyl-1,3-thiazole-2-carboxamide], the melting point was 163 to 164 °C.
`CC(C)n1nc(-c2sc(C(=O)NC3CC3)nc2-c2ccccc2)ccc1=O` [Example 192, N-cyclopropyl-5-(1-isopropyl-6-oxo-1,6-dihydro-3-pyridazinyl)-4-phenyl-1,3-thiazole-2-carboxamide]: the melting point lay within 127 to 128 °C.
Take `CC(C)n1nc(-c2sc(NCCCN3CCOCC3)nc2-c2ccccc2)ccc1=O` [Example 68, 2-I sopropyl-6-(2-{[3-(4-morpholinyl)propyl]amino}-4-phenyl-1,3-thiazol-5-yl)-3(2H)-pyridazinone]: the melting point lay within 194 to 195 °C.
Then `CC(C)NC(=O)c1nc(-c2ccc(F)cc2)c(-c2ccc(=O)n(C(C)C)n2)s1` [Example 186, 4-(4-fluorophenyl)-N-isopropyl-5-(1-isopropyl-6-oxo-1,6-dihydro-3-pyridazinyl)-1,3-thiazole-2-carboxamide], with 122 to 123.5 °C; and `COCCn1nc(-c2sc(C(=O)NCc3ccccn3)nc2-c2ccccc2)ccc1=O` [Example 206, 5-[1-(2-Methoxyethyl)-6-oxo-1,6-dihydro-3-pyridazinyl]-4-phenyl-N-(2-pyridinylmethyl)-1,3-thiazole-2-carboxamide], with 168 to 169.5 °C.
The value for `CC(C)n1nc(-c2sc(N)nc2-c2cccc(F)c2)ccc1=O` [Example 80, 6-[2-Amino-4-(3-fluorophenyl)-1,3-thiazol-5-yl]-2-isopropyl-3(2H)-pyridazinone] was 237 to 238 °C; that for `Cn1nc(-c2sc(C(N)=O)nc2-c2ccccc2)ccc1=O` [Example 159, 5-(1-methyl-6-oxo-1,6-dihydro-3-pyridazinyl)-4-phenyl-1,3-thiazole-2-carboxamide] was 231 to 232 °C.
In turn, `CCCNC(=O)c1nc(-c2ccccc2)c(-c2ccc(=O)n(C)n2)s1` [Example 170, 5-(1-methyl-6-oxo-1,6-dihydro-3-pyridazinyl)-4-phenyl-N-propyl-1,3-thiazole-2-carboxamide] registered a melting point of 108 to 109 °C.
Compound `CC(C)n1nc(-c2sc(NC(=O)C3CC3)nc2-c2ccc(F)cc2)ccc1=O` [Example 57, N-[4-(4-Fluorophenyl)-5-(1-isopropyl-6-oxo-1,6-dihydro-3-pyridazinyl)-1,3-thiazol-2-yl]cyclopropanecarboxamide] had a melting point of 250 to 252 °C.
The value for `CC(C)n1nc(-c2sc(C(N)=O)nc2-c2ccccc2)ccc1=O` [Example 161, 5-(1-Isopropyl-6-oxo-1,6-dihydro-3-pyridazinyl)-4-phenyl-1,3-thiazole-2-carboxamide] was 222 to 223 °C.
The value for `CCn1nc(-c2sc(C(=O)NC3CC3)nc2-c2ccccc2)ccc1=O` [Example 190, N-cyclopropyl-5-(1-ethyl-6-oxo-1,6-dihydro-3-pyridazinyl)-4-phenyl-1,3-thiazole-2-carboxamide] was 144 to 145 °C; that for `CC(C)NCc1ccc(C(=O)Nc2nc(-c3ccccc3)c(-c3ccc(=O)n(C(C)C)n3)s2)cc1` [Example 152, 4-[(Isopropylamino)methyl]-N-[5-(1-isopropyl-6-oxo-1,6-dihydro-3-pyridazinyl)-4-phenyl-1,3-thiazol-2-yl]benzamide] was 139 to 141 °C.
With `CC(C)n1nc(-c2sc(NC(=O)c3ccc(CNCCN4CCOCC4)cc3)nc2-c2ccccc2)ccc1=O` [Example 140, N-[5-(1-Isopropyl-6-oxo-1,6-dihydro-3-pyridazinyl)-4-phenyl-1,3-thiazol-2-yl]-4-({[2-(4-morpholinyl)ethyl]amino}methyl)benzamide], the melting point lay within 86 to 88 °C.
As for `CC(C)n1nc(-c2sc(NC(=O)N3CCCCC3)nc2-c2ccccc2)ccc1=O` [Example 52, N-[5-(1-Isopropyl-6-oxo-1,6-dihydro-3-pyridazinyl)-4-phenyl-1,3-thiazol-2-yl]-1-piperidinecarboxamide], the melting point was in the range of 138 to 140 °C.
Take `O=C(NCc1ccccn1)c1nc(-c2ccccc2)c(-c2ccc(=O)[nH]n2)s1` [Example 200, 5-(6-oxo-1,6-dihydro-3-pyridazinyl)-4-phenyl-N-(2-pyridinylmethyl)-1,3-thiazole-2-carboxamide]: the melting point was 221 to 222.5 °C.
Compound `CC(C)n1nc(-c2sc(NC(=O)CCN3CCCC3)nc2-c2ccccc2)ccc1=O.Cl` showed a melting point of 224 to 225 °C.
`CCCNc1nc(-c2ccccc2)c(-c2ccc(=O)n(C(C)C)n2)s1` [Example 73, 2-Isopropyl-6-[4-phenyl-2-(propylamino)-1,3-thiazol-5-yl]-3(2H)-pyridazinone] came in with a melting point of 165 to 166 °C.
Regarding `CCn1nc(-c2sc(C(=O)NC(C)C)nc2-c2ccccc2)ccc1=O` [Example 178, 5-(1-ethyl-6-oxo-1,6-dihydro-3-pyridazinyl)-N-isopropyl-4-phenyl-1,3-thiazole-2-carboxamide], the melting point fell in the range of 152.5 to 153 °C.
The value for `CC(=O)Cn1nc(-c2sc(N)nc2-c2ccccc2)ccc1=O` [Example 90, 6-(2-Amino-4-phenyl-1,3-thiazol-5-yl)-2-(2-oxopropyl)-3(2H)-pyridazinone] was 216 to 219 °C; that for `CCCn1nc(-c2sc(N)nc2-c2ccccc2)ccc1=O` [Example 86, 6-(2-Amino-4-phenyl-1,3-thiazol-5-yl)-2-propyl-3(2H)-pyridazinone] was 224 to 226 °C.

For the origin of these results see patent US20050004134A1, “Thiazole derivative and pharmaceutical use thereof” (priority 2001, published 2005).
